Measured values as given in ChEMBL document CHEMBL2407067, “Pyridone-conjugated monobactam antibiotics with gram-negative activity” (J Med Chem, 2013).
Values after ≈ are worked out from the molar mass of the structure shown. Blank lines part the entries; values can stand above or below the compound they belong to.

What was measured:
[1] = Inhibition of PBP3 in Pseudomonas aeruginosa ATCC 27853 after 20 mins by fluorescence assay
[2] = Inhibition of PBP2 in Pseudomonas aeruginosa ATCC 27853 after 20 mins by fluorescence assay
[3] = Inhibition of PBP1b in Pseudomonas aeruginosa ATCC 27853 after 20 mins by fluorescence assay
[4] = Inhibition of PBP1a in Pseudomonas aeruginosa ATCC 27853 after 20 mins by fluorescence assay
Acinetobacter baumannii = experiment: Antibacterial activity against Acinetobacter baumannii AB-3167 by broth microdilution method; assay type: functional
Klebsiella pneumoniae [5] = experiment: Antibacterial activity against Klebsiella pneumoniae 1487-07 by broth microdilution method; assay type: functional
Klebsiella pneumoniae [6] = experiment: Antibacterial activity against Klebsiella pneumoniae 1000-02 by broth microdilution method; assay type: functional
Pseudomonas aeruginosa [7] = experiment: Antibacterial activity against Pseudomonas aeruginosa 1042-06 by broth microdilution method; assay type: functional
Pseudomonas aeruginosa [8] = experiment: microbe, parasite or virus in culture; settings: 1091-05
Description: Antibacterial activity against Pseudomonas aeruginosa 1091-05 by broth microdilution method

Pseudomonas aeruginosa [9] = experiment: Ratio of MIC for PiuA/PirA receptor-deficient Pseudomonas aeruginosa PAO1 to MIC for Pseudomonas aeruginosa PAO1 in iron-chelated Muller-Hinton broth medium by broth microdilution method; assay type: functional
Pseudomonas aeruginosa [10] = experiment: Ratio of MIC for PiuA/PirA receptor-deficient Pseudomonas aeruginosa PAO1 to MIC for Pseudomonas aeruginosa PAO1 in Muller-Hinton broth medium by broth microdilution method; assay type: functional
Pseudomonas aeruginosa [11] = experiment: Ratio of MIC for PiuA receptor-deficient Pseudomonas aeruginosa PAO1 to MIC for Pseudomonas aeruginosa PAO1 in Muller-Hinton broth medium by broth microdilution method; assay type: functional
Rattus norvegicus = experiment: Intrinsic clearance in Wistar Han rat at 1 mg/kg, iv by LC/MS/MS analysis; assay type: ADME, organism-based; parameters: dose 1 mg/kg, route intravenous; settings: in vivo
[12] = Fraction unbound in mouse plasma; assay type: ADME, cell-free
[13] = Plasma clearance in Wistar Han rat at 1 mg/kg, iv by LC/MS/MS analysis; assay type: ADME, organism-based; parameters: dose 1 mg/kg, route intravenous
[14] = Fraction unbound in rat plasma; assay type: ADME, cell-free
[15] = Fraction unbound in human plasma; assay type: ADME, cell-free
Pseudomonas aeruginosa [16] = experiment: Antibacterial activity against PiuA/PirA receptor-deficient Pseudomonas aeruginosa PAO1 in iron-chelated Muller-Hinton broth medium by broth microdilution method; assay type: functional
Pseudomonas aeruginosa [17] = experiment: Antibacterial activity against PiuA/PirA receptor-deficient Pseudomonas aeruginosa PAO1 in Muller-Hinton broth medium by broth microdilution method; assay type: functional
Pseudomonas aeruginosa [18] = experiment: Antibacterial activity against PiuA/FptA receptor-deficient Pseudomonas aeruginosa PAO1 in iron-chelated Muller-Hinton broth medium by broth microdilution method; assay type: functional
Pseudomonas aeruginosa [19] = experiment: Antibacterial activity against PiuA/FptA receptor-deficient Pseudomonas aeruginosa PAO1 in Muller-Hinton broth medium by broth microdilution method; assay type: functional
Pseudomonas aeruginosa [20] = experiment: Antibacterial activity against PiuA/FpvA receptor-deficient Pseudomonas aeruginosa PAO1 in iron-chelated Muller-Hinton broth medium by broth microdilution method; assay type: functional
Pseudomonas aeruginosa [21] = experiment: Antibacterial activity against PiuA/FpvA receptor-deficient Pseudomonas aeruginosa PAO1 in Muller-Hinton broth medium by broth microdilution method; assay type: functional
Pseudomonas aeruginosa [22] = experiment: Antibacterial activity against FptA receptor-deficient Pseudomonas aeruginosa PAO1 in iron-chelated Muller-Hinton broth medium by broth microdilution method; assay type: functional
Pseudomonas aeruginosa [23] = experiment: Antibacterial activity against FptA receptor-deficient Pseudomonas aeruginosa PAO1 in Muller-Hinton broth medium by broth microdilution method; assay type: functional
Pseudomonas aeruginosa [24] = experiment: Antibacterial activity against FpvA receptor-deficient Pseudomonas aeruginosa PAO1 in iron-chelated Muller-Hinton broth medium by broth microdilution method; assay type: functional
Pseudomonas aeruginosa [25] = experiment: Antibacterial activity against FpvA receptor-deficient Pseudomonas aeruginosa PAO1 in Muller-Hinton broth medium by broth microdilution method; assay type: functional
Pseudomonas aeruginosa [26] = experiment: Antibacterial activity against PirA receptor-deficient Pseudomonas aeruginosa PAO1 in iron-chelated Muller-Hinton broth medium by broth microdilution method; assay type: functional
Pseudomonas aeruginosa [27] = experiment: Antibacterial activity against PirA receptor-deficient Pseudomonas aeruginosa PAO1 in Muller-Hinton broth medium by broth microdilution method; assay type: functional
Pseudomonas aeruginosa [28] = experiment: Antibacterial activity against PiuA receptor-deficient Pseudomonas aeruginosa PAO1 in iron-chelated Muller-Hinton broth medium by broth microdilution method; assay type: functional
Pseudomonas aeruginosa [29] = experiment: Antibacterial activity against PiuA receptor-deficient Pseudomonas aeruginosa PAO1 in Muller-Hinton broth medium by broth microdilution method; assay type: functional
Pseudomonas aeruginosa [30] = experiment: Antibacterial activity against Pseudomonas aeruginosa PAO1 in Muller-Hinton broth medium by broth microdilution method; assay type: functional
Pseudomonas aeruginosa [31] = experiment: Antibacterial activity against Pseudomonas aeruginosa from cystic fibrosis patients by broth microdilution method; assay type: functional
Acinetobacter sp. = experiment: Antibacterial activity against Acinetobacter spp. by broth microdilution method; assay type: functional
Escherichia coli [32] = experiment: Antibacterial activity against Escherichia coli expressing defined beta-lactamase by broth microdilution method; assay type: functional
Escherichia coli [33] = experiment: Antibacterial activity against Escherichia coli expressing CTX-M by broth microdilution method; assay type: functional
Escherichia coli [34] = experiment: Antibacterial activity against Escherichia coli expressing ESBL by broth microdilution method; assay type: functional
Klebsiella pneumoniae [35] = experiment: Antibacterial activity against Klebsiella pneumoniae expressing KPC by broth microdilution method; assay type: functional
Klebsiella pneumoniae [36] = experiment: Antibacterial activity against Klebsiella pneumoniae expressing ESBL by broth microdilution method; assay type: functional
Klebsiella pneumoniae [37] = experiment: Antibacterial activity against Klebsiella pneumoniae expressing defined beta-lactamase by broth microdilution method; assay type: functional
Pseudomonas aeruginosa [38] = experiment: Antibacterial activity against Pseudomonas aeruginosa expressing metallo-beta-lactamase by broth microdilution method; assay type: functional

SMILES: C[C@H]1[C@H](NC(=O)/C(=N\OC(C)(C)C(=O)O)c2csc(N)n2)C(=O)N1S(=O)(=O)O [AZTREONAM]
- IC50 [1]: 8 nM
- IC50 [2]: > 300 µM
- IC50 [3]: 2.87 µM
- IC50 [4]: 3340 nM
- MIC50 (Pseudomonas aeruginosa [31]): 8 µg/mL (≈ 18.4 µM)
- MIC90 (Pseudomonas aeruginosa [31]): 64 µg/mL (≈ 147 µM)
- MIC50 (Acinetobacter sp.): 32 µg/mL (≈ 73.5 µM)
- MIC90 (Acinetobacter sp.): > 64 µg/mL
- MIC50 (Escherichia coli [32]): 4 µg/mL (≈ 9.19 µM)
- MIC90 (Escherichia coli [32]): > 64 µg/mL
- MIC50 (Escherichia coli [33]): 64 µg/mL (≈ 147 µM)
- MIC90 (Escherichia coli [33]): > 64 µg/mL
- MIC50 (Escherichia coli [34]): 64 µg/mL (≈ 147 µM)
- MIC90 (Escherichia coli [34]): > 64 µg/mL
- MIC50 (Klebsiella pneumoniae [35]): > 64 µg/mL
- MIC90 (Klebsiella pneumoniae [35]): > 64 µg/mL
- MIC50 (Klebsiella pneumoniae [36]): 32 µg/mL (≈ 73.5 µM)
- MIC90 (Klebsiella pneumoniae [36]): > 64 µg/mL
- MIC50 (Klebsiella pneumoniae [37]): 64 µg/mL (≈ 147 µM)
- MIC90 (Klebsiella pneumoniae [37]): > 64 µg/mL
- MIC50 (Pseudomonas aeruginosa [38]): 8 µg/mL (≈ 18.4 µM)
- MIC90 (Pseudomonas aeruginosa [38]): 16 µg/mL (≈ 36.7 µM)
- MIC (Acinetobacter baumannii): 4 µg/mL (≈ 9.19 µM)
- MIC (Klebsiella pneumoniae [5]): > 64 µg/mL
- MIC (Klebsiella pneumoniae [6]): > 64 µg/mL
- MIC (Pseudomonas aeruginosa [7]): 64 µg/mL (≈ 147 µM)
- MIC (Pseudomonas aeruginosa [8]): 4 µg/mL (≈ 9.19 µM)

SMILES: CC(C)(O/N=C(\C(=O)N[C@@H]1C(=O)N(S(=O)(=O)O)[C@@H]1CNC(=O)c1cc(=O)c(O)cn1-c1ccccc1)c1csc(N)n1)C(=O)O
- IC50 [1]: 140 nM
- IC50 [2]: > 300 µM
- IC50 [3]: 7.4 µM
- IC50 [4]: 580 nM
- MIC (Acinetobacter baumannii): 32 µg/mL (≈ 48.2 µM)
- MIC (Klebsiella pneumoniae [5]): 16 µg/mL (≈ 24.1 µM)
- MIC (Klebsiella pneumoniae [6]): 1 µg/mL (≈ 1.51 µM)
- MIC (Pseudomonas aeruginosa [7]): 32 µg/mL (≈ 48.2 µM)
- MIC (Pseudomonas aeruginosa [8]): 32 µg/mL (≈ 48.2 µM)

SMILES: CC(C)(O/N=C(\C(=O)N[C@@H]1C(=O)N(S(=O)(=O)[O-])[C@@H]1CNC(=O)OCc1cc(=O)c(O)cn1O)c1csc(N)n1)C(=O)[O-].[Na+].[Na+]
- CL (Rattus norvegicus): 29 mL/min/kg
- fraction unbound [12]: 0.72
- clearance [13]: 14.2 mL/min/kg
- fraction unbound [14]: 0.61
- fraction unbound [15]: 0.51
- MIC (Acinetobacter baumannii): 0.125 µg/mL
- MIC (Klebsiella pneumoniae [6]): 4 µg/mL
- MIC (Pseudomonas aeruginosa [7]): 2 µg/mL
- MIC (Pseudomonas aeruginosa [8]): 0.25 µg/mL

More lines, in order of falling MIC (Acinetobacter baumannii), values ahead:

- IC50 [1]: 270 nM
- IC50 [2]: > 300 µM
- IC50 [3]: 11.1 µM
- IC50 [4]: 3020 nM
- MIC (Acinetobacter baumannii): 1 µg/mL (≈ 1.54 µM)
- MIC (Klebsiella pneumoniae [5]): 16 µg/mL (≈ 24.7 µM)
- MIC (Klebsiella pneumoniae [6]): 8 µg/mL (≈ 12.4 µM)
- MIC (Pseudomonas aeruginosa [7]): > 64 µg/mL
- MIC (Pseudomonas aeruginosa [8]): 1 µg/mL (≈ 1.54 µM)
SMILES: CC(C)(O/N=C(\C(=O)N[C@@H]1C(=O)N(S(=O)(=O)O)[C@@H]1CNC(=O)NCc1cc(=O)c(O)cn1O)c1csc(N)n1)C(=O)NO

- IC50 [1]: 54 nM
- IC50 [2]: > 300 µM
- IC50 [3]: 1.67 µM
- IC50 [4]: 620 nM
- CL (Rattus norvegicus): 10 mL/min/kg
- fraction unbound [12]: 0.91
- clearance [13]: 8.4 mL/min/kg
- fraction unbound [14]: 0.91
- fraction unbound [15]: 1
- MIC (Pseudomonas aeruginosa [16]): 32 µg/mL (≈ 50.6 µM)
- MIC (Pseudomonas aeruginosa [17]): 32 µg/mL (≈ 50.6 µM)
- MIC (Pseudomonas aeruginosa [18]): 0.5 µg/mL (≈ 0.79 µM)
- MIC (Pseudomonas aeruginosa [19]): 8 µg/mL (≈ 12.6 µM)
- MIC (Pseudomonas aeruginosa [20]): 0.25 µg/mL (≈ 0.395 µM)
- MIC (Pseudomonas aeruginosa [21]): 8 µg/mL (≈ 12.6 µM)
- MIC (Pseudomonas aeruginosa [22]): 0.25 µg/mL (≈ 0.395 µM)
- MIC (Pseudomonas aeruginosa [23]): 0.25 µg/mL (≈ 0.395 µM)
- MIC (Pseudomonas aeruginosa [24]): 0.06 µg/mL (≈ 0.0948 µM)
- MIC (Pseudomonas aeruginosa [25]): 0.25 µg/mL (≈ 0.395 µM)
- MIC (Pseudomonas aeruginosa [26]): 0.25 µg/mL (≈ 0.395 µM)
- MIC (Pseudomonas aeruginosa [27]): 0.25 µg/mL (≈ 0.395 µM)
- MIC (Pseudomonas aeruginosa [28]): 0.5 µg/mL (≈ 0.79 µM)
- MIC (Pseudomonas aeruginosa [29]): 8 µg/mL (≈ 12.6 µM)
- MIC (Pseudomonas aeruginosa [30]): 0.25 µg/mL (≈ 0.395 µM)
- MIC50 (Pseudomonas aeruginosa [31]): 0.25 µg/mL (≈ 0.395 µM)
- MIC90 (Pseudomonas aeruginosa [31]): 4 µg/mL (≈ 6.32 µM)
- MIC50 (Acinetobacter sp.): 8 µg/mL (≈ 12.6 µM)
- MIC90 (Acinetobacter sp.): > 64 µg/mL
- MIC50 (Escherichia coli [32]): 0.125 µg/mL (≈ 0.198 µM)
- MIC90 (Escherichia coli [32]): 1 µg/mL (≈ 1.58 µM)
- MIC50 (Escherichia coli [33]): 0.5 µg/mL (≈ 0.79 µM)
- MIC90 (Escherichia coli [33]): 1 µg/mL (≈ 1.58 µM)
- MIC50 (Escherichia coli [34]): 0.25 µg/mL (≈ 0.395 µM)
- MIC90 (Escherichia coli [34]): 2 µg/mL (≈ 3.16 µM)
- MIC50 (Klebsiella pneumoniae [35]): 4 µg/mL (≈ 6.32 µM)
- MIC90 (Klebsiella pneumoniae [35]): 16 µg/mL (≈ 25.3 µM)
- MIC90 (Klebsiella pneumoniae [36]): 1 µg/mL (≈ 1.58 µM)
- MIC50 (Klebsiella pneumoniae [37]): 0.5 µg/mL (≈ 0.79 µM)
- MIC90 (Klebsiella pneumoniae [37]): 16 µg/mL (≈ 25.3 µM)
- MIC50 (Pseudomonas aeruginosa [38]): 0.25 µg/mL (≈ 0.395 µM)
- MIC90 (Pseudomonas aeruginosa [38]): 1 µg/mL (≈ 1.58 µM)
- MIC (Acinetobacter baumannii): 0.25 µg/mL (≈ 0.395 µM)
- MIC (Klebsiella pneumoniae [5]): 2 µg/mL (≈ 3.16 µM)
- MIC (Klebsiella pneumoniae [6]): 0.25 µg/mL (≈ 0.395 µM)
- MIC (Pseudomonas aeruginosa [7]): 2 µg/mL (≈ 3.16 µM)
- MIC (Pseudomonas aeruginosa [8]): 0.25 µg/mL (≈ 0.395 µM)
SMILES: CC(C)(O/N=C(\C(=O)N[C@@H]1C(=O)N(S(=O)(=O)O)[C@@H]1CNC(=O)NCc1cc(=O)c(O)cn1O)c1csc(N)n1)C(=O)O
- Ratio (Pseudomonas aeruginosa [9]): >=64
- Ratio (Pseudomonas aeruginosa [10]): >=64
- Ratio (Pseudomonas aeruginosa [11]): 32
